Data published in US9174994B2, “Enhanced treatment regimens using mTor inhibitors” (INTELLIKINE LLC, priority 2011, dated 2015).

Assay: Phase I clinical trial: treatment-emergent adverse events (patients, n (%)), dose limiting toxicity, MTD
Assay type: in vivo
[1] = all 3 intermittent dosing regimens, n=35

Procedure: Safety, maximum tolerated dose (MTD), pharmacokinetics (PK) and preliminary antitumor activity were evaluated.
Pharmacodynamic (PD) endpoints were evaluated in surrogate (peripheral blood cells [PBCs], skin) and tumor tissues for the phosphorylation of TORC1-dependent markers (4EBP1/S6), and TORC2-dependent markers (AKT/PRAS40).

## CC(C)n1nc(-c2ccc3oc(N)nc3c2)c2c(N)ncnc21 [compound A]
Total QD Dosing (N = 25)
  Cough: 1 (4%)
  Decreased appetite: 6 (24%)
  Dehydration: 2 (8%)
  Diarrhoea: 8 (32%)
  Dizziness: 1 (4%)
  Dry mouth: 5 (20%)
  Dry skin: 1 (4%)
  Dysgeusia: 8 (32%)
  Dyspepsia: 1 (4%)
  Dyspnoea: 1 (4%)
  Dyspnoea exertional: 1 (4%)
  Eye infection: 1 (4%)
  Fatigue: 6 (24%)
  Gastritis: 1 (4%)
  Gravitational oedema: 1 (4%)
  Hypercholesterolaemia: 5 (20%)
  Hyperglycaemia: 22 (88%)
  Hypocalcaemia: 1 (4%)
  Insomnia: 1 (4%)
  Lymphopenia: 3 (12%)
  Mucosal inflammation: 8 (32%)
  Muscle spasms: 1 (4%)
  Nausea: 9 (36%)
  Orthostatic hypotension: 1 (4%)
  Panniculitis: 1 (4%)
  Patients Reporting at Least One Related TEAE: 25 (100%)
  Polyuria: 1 (4%)
  Pruritus: 9 (36%)
  Rash: 13 (52%)
  Skin discolouration: 1 (4%)
  Skin exfoliation: 1 (4%)
  Thrombocytopenia: 4 (16%)
  Vomiting: 6 (24%)
  Weight decreased: 1 (4%)
Total QDx3d QW (N = 14)
  Alanine aminotransferase increased: 1 (7%)
  Asthenia: 3 (21%)
  Catheter site inflammation: 1 (7%)
  Catheter site pain: 1 (7%)
  Decreased appetite: 1 (7%)
  Diarrhoea: 2 (14%)
  Dry skin: 1 (7%)
  Dysgeusia: 1 (7%)
  Dyspnoea: 1 (7%)
  Fatigue: 1 (7%)
  Headache: 1 (7%)
  Hyperbilirubinaemia: 1 (7%)
  Hypercholesterolaemia: 1 (7%)
  Hyperglycaemia: 6 (43%)
  Hypertransaminasaemia: 1 (7%)
  Hypertriglyceridaemia: 1 (7%)
  Hypomagnesaemia: 1 (7%)
  Hypotension: 1 (7%)
  Low fever: 1 (7%)
  Lymphopenia: 1 (7%)
  Mucosal inflammation: 7 (50%)
  Nausea: 6 (43%)
  Palmar-plantar erythrodysaesthesia syndrome: 1 (7%)
  Patients Reporting at Least One Related TEAE: 11 (79%)
  Platelet count decreased: 1 (7%)
  Pruritus: 4 (29%)
  Pyrexia: 1 (7%)
  Rash: 4 (29%)
  Rash macular: 1 (7%)
  Urinary tract infection: 1 (7%)
  Vomiting: 3 (21%)
Total QDx3d QW (N = 14), 2nd Asthenia line
  Asthenia: 1 (7%)
Total QDx5d QW (N = 6)
  Diarrhoea: 1 (17%)
  Patients Reporting at Least One Related TEAE: 2 (33%)
  Rash: 1 (17%)
  Urine tract infection: 1 (17%)
  Vomiting: 1 (17%)
Total QDx5d QW (N = 6), 1st Nausea line
  Nausea: 1 (17%)
Total QDx5d QW (N = 6), 2nd Nausea line
  Nausea: 1 (17%)
Total QW Dosing (N = 15)
  ASTHENIA: 1 (7%)
  ATHENIA: 1 (7%)
  Alanine aminotransferase increased: 1 (7%)
  Aspartate aminotransferase increased: 2
  Asthenia: 2
  Blood creatinine increased: 1 (7%)
  Blood triglycerides increased: 1 (7%)
  DIARRHEA: 1 (7%)
  Decreased appetite: 1 (7%)
  Diarrhoea: 3
  Dysgeusia: 1 (7%)
  Dyspepsia: 1 (7%)
  HYPERGLYCEMIA: 2
  Hyperglycaemia: 5
  Lymphopenia: 1 (7%)
  Malaise: 1 (7%)
  Mucosal inflammation: 3
  Muscle spasms: 1 (7%)
  Nausea: 10
  Oral discomfort: 1 (7%)
  Patients Reporting at Least One Related TEAE: 13
  Pruritus: 1 (7%)
  RASH: 1 (7%)
  Rash: 1 (7%)
  Vomiting: 5
  WEAKNESS: 1 (7%)
[1]
  asthenia, AE considered possibly related: 23%
  diarrhea, AE considered possibly related: 20%
  hyperglycemia, AE considered possibly related: 37%
  mucosal inflammation, AE considered possibly related: 29%
  nausea, AE considered possibly related: 51%
  rash, AE considered possibly related: 23%
  vomiting, AE considered possibly related: 26%
Any regimen
  grade of the majority of AEs considered possibly related: Grade 1 or 2
Intermittent dosing
  MTD: not reached
